{"source": "patent US5298521A", "about": "“1,5-diphenyl-3-pyrazolylalkyl-N-hydroxydithiocaramates, compositions and use” (Ortho Pharmaceutical Corporation, priority 1993, dated 1994)", "key": {"[1]": {"biological_target": "T1, RBL-1 cell cyclooxygenase (Rattus norvegicus, UniProt Q63921)", "T1 construct": "the supernatant was saved as the source of enzymes; endogenous in cells; host or cells: RBL-1 rat basophilic leukemia cells, homogenate supernatant", "T1 sequence (Q63921 27-602)": "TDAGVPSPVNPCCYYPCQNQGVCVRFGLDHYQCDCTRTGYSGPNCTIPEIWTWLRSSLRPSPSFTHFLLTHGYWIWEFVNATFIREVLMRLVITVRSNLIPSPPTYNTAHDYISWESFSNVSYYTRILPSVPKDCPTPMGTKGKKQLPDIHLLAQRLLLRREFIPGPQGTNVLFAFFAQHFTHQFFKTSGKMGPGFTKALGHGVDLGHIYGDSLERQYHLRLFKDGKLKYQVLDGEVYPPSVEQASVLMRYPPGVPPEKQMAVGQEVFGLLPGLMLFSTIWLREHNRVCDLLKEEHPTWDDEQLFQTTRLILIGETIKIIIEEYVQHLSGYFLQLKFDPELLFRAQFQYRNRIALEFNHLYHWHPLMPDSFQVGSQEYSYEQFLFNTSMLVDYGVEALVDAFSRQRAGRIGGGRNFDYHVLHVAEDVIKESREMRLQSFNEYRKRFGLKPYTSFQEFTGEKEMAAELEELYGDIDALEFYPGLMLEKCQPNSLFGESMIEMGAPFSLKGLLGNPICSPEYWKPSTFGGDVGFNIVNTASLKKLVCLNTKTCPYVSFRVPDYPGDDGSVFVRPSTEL", "experiment": "RBL-1 cell cyclooxygenase, cell homogenate supernatant (Procedure II)", "assay_type": "biochemical", "conditions": "RBL-1 homogenate, 3 μM; read-out: PROC. II % INHIBITION CO", "method": "(§1) RBL-1 cell 5-lipoxygenase and cyclooxygenase\n(§2) Rat basophilic leukemia cells (RBL-1; 5×10^7 viable cells/mL) were disrupted by homogenization on ice (four 20 sec bursts) with a Brinkman polytron. Complete cell breakage was verified microscopically. The homogenate was then centrifuged at 10,000×g for 48 minutes at 4° C. The pellet was discarded and the supernatant was saved as the source of enzymes. The supernatant was pre-incubated for five minutes at 37° C. in the presence of 2 mM of CaCl2 and compound or vehicle (1% DMSO). The conversion of AA into 5-LO products was initiated by adding 10 μL (50 μCi) of 1-^14 C-AA to each tube and incubated at 37° C. for 20 minutes. The reaction was stopped by adjusting the pH of each sample to 3 to 3.5 with 2M formic acid. Samples were extracted with three volumes of chloroform to isolate the products of 5-LO formed during the reaction. Fractions were dried under nitrogen, then resuspended in 40 μL of chloroform and spotted onto silica gel HL plates. The plates were developed in A-9 solvent. The dried plates were analyzed using a Bioscan Imaging TLC scanner to determine the percentage of radiolabelled AA converted to 5-HETE in each sample."}, "[2]": {"biological_target": "T2, RBL-1 cell 5-lipoxygenase (Rattus norvegicus, UniProt P12527)", "T2 construct": "the supernatant was saved as the source of enzymes; endogenous in cells; host or cells: RBL-1 rat basophilic leukemia cells, homogenate supernatant", "T2 sequence (P12527 1-673)": "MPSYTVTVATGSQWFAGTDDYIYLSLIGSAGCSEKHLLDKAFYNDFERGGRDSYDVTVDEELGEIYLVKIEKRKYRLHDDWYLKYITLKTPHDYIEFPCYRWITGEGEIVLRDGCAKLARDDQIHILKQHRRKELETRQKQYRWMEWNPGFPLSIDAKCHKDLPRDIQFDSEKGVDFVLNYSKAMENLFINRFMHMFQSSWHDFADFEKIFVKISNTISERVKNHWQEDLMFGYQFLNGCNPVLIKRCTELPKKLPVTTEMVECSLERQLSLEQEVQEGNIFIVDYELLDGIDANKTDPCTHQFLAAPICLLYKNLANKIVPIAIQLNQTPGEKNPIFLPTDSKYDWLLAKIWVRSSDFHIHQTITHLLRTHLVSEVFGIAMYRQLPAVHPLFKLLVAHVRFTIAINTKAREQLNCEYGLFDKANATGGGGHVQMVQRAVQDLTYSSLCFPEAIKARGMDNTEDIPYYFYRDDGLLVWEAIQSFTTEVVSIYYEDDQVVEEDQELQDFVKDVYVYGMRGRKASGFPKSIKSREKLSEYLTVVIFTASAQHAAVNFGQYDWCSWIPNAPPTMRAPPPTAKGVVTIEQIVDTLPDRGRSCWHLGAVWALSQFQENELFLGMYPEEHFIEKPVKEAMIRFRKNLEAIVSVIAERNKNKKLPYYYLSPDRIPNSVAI", "experiment": "RBL-1 cell 5-lipoxygenase, cell homogenate supernatant (Procedure II)", "assay_type": "biochemical", "conditions": "RBL-1 homogenate, 3 μM; read-out: PROC. II % INHIBITION 5-LO", "method": "as §1, §2"}, "CO in intact RBL-1 cells": {"tested_on": "CO in intact RBL-1 cells", "experiment": "CO inhibition in intact RBL-1 cells (Procedure III)", "assay_type": "cell-based, rat", "conditions": "superscript = number of experiments, read-out: PROC. III IC50 CO", "method": "(§3) The ability to inhibit 5-LO and CO in intact RBL-1 cells was also evaluated. RBL-1 cells were maintained in culture in minimal essential medium (Bio*Whittaker, Walkersville, MD), containing 12.5% fetal calf serum, 10 mg/mL streptomycin, 10 I.U./mL penicillin G, […] gentamycin and 2 mM L-glutamine (Bio*Whittaker, Walkersville, MD). Cells were collected by centrifugation, washed once in HBSS, and resuspended at a concentration of 1×10^5 cells/mL. Cells were incubated in the presence of vehicle or drug then centrifuged at 800×g for 10 minutes at 4° C. The supernatant was removed by aspiration and the cells were resuspended in 0.5 mL of HBSS. The reaction was started by the addition of 20 μg/mL of calcium ionophore A-23187 (mixed calcium and magnesium salts, Calbiochem, La Jolla CA) and allowed to proceed for 15 minutes, then stopped by plunging the tubes into a slush ice bath. The conversion of AA to 5-LO products was initiated by the addition of 10 μL (50 uCi) of 1-^14 C-AA. Products were isolated by acidification and extraction, followed by thin layer chromatography analysis as described above. Radioactive areas corresponding to authentic 5-LO and CO products were quantitated by the Bioscan 2000 Imaging System."}, "[3]": {"biological_target": "T3, 5-LO in intact RBL-1 cells (Rattus norvegicus, UniProt P12527)", "T3 construct": "endogenous in cells; host or cells: intact RBL-1 cells", "T3 sequence (P12527 1-673)": "T2 sequence (P12527 1-673)", "experiment": "5-LO inhibition in intact RBL-1 cells (Procedure III)", "assay_type": "cell-based", "conditions": "read-out: PROC. III IC50 5-LO", "method": "as §3"}, "[4]": {"biological_target": "T4, Sheep seminal vesicle cyclooxygenase (Ovis aries, UniProt P05979)", "T4 construct": "Sheep seminal vesicle (SSV) cyclooxygenase (95% pure); purchased Biomol (Plymouth Meeting, Pa.); host or cells: sheep seminal vesicle", "T4 sequence (P05979 25-600)": "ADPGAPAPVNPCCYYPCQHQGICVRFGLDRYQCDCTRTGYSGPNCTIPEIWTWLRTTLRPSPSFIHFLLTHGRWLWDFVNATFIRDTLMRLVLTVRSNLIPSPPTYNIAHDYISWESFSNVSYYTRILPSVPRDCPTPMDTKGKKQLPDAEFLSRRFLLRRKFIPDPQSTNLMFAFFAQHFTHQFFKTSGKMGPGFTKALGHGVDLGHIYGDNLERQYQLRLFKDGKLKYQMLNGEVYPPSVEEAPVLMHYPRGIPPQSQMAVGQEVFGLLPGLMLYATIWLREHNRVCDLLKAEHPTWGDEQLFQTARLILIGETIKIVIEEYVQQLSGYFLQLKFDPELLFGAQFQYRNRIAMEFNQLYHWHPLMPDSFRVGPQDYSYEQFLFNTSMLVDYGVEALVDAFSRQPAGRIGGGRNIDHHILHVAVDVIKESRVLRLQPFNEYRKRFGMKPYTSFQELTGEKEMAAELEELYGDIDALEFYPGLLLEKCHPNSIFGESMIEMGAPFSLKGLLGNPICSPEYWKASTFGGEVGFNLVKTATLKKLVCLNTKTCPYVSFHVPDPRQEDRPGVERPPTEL", "experiment": "Sheep seminal vesicle cyclooxygenase (Procedure I)", "assay_type": "biochemical", "conditions": "read-out: PROC. I % INHIB CO", "method": "Sheep seminal vesicle cyclooxygenase Sheep seminal vesicle (SSV) cyclooxygenase (95% pure, prostaglandin endoperoxide synthase, EC 1.14.99.1 specific activity 24 units/mg protein) obtained as a lyophilized powder from Biomol (Plymouth Meeting, Pa.) was reconstituted at a concentration of 59 mg/mL in Hanks' Balanced Salt Solution (HBSS). The enzyme was divided into 200 μL aliquots, snap frozen with liquid N2, and stored at -70° C. unitl immediately prior to use. Measurements of CO activity were carried out in polypropylene tubes containing 495 μL of HBSS to which was added 5 μL of inhibitor or dimethylsulfoxide (DMSO; vehicle control) and 6 μL of SSV CO solution. The tubes were mixed on a vortex shaker, preincubated for 5 min at 37° C. prior to the initiation of the reaction. The reaction was started by the addition of [^14 C]-arachidonic acid (1-^14 C-AA, Amersham, Arlington Heights, Il) in 10 μL of methanol. Tubes were again vortexed and incubated in a water bath for 20 minutes after which the tubes were removed and the reaction stopped by acidification with the addition of 1 mL 2M formic acid. Lipophilic products were extracted with 3 mL chloroform and concentrated to dryness under N2. Each pellet was reconstituted with 40 μL of chloroform and spotted on a Whatman Silicon thin-layer chromatography plate and developed in a chromatography tank containing A-9 solvent (11:5:2:1 V:V:V:V, ethyl acetate:trimethylpentane:acetic acid:double distilled-H2 O). Radioactive cyclooxygenase products (prostaglandin D2, prostaglandin E2, etc.) were measured using a Bioscan System 200 Imaging Scanner. Inhibition of enzyme activity was calculated by comparing the areas under the curve produced in the presence or absence of test compound."}}}
{"smiles": "COc1ccc(-n2nc(CSC(=S)N(C)O)cc2-c2ccc(Cl)cc2)cc1", "note": "[1-A, 5-(4-chlorophenyl)-1-(4-methoxyphenyl)-3-pyrazolylmethyl-N-hydroxy-N-methyl dithiocarbamate]", "values": [{"measurement": "inhibition at 3 µM", "setting": "[1]", "result": 100, "unit": "%"}, {"measurement": "inhibition at 3 µM", "setting": "[2]", "result": 85, "unit": "%"}, {"measurement": "IC50", "setting": "CO in intact RBL-1 cells", "result": 230, "unit": "nM"}, {"measurement": "IC50", "setting": "[3]", "result": 2500, "unit": "nM"}]}
{"smiles": "COc1ccc(-n2nc(CSC(=S)N(C)O)cc2-c2ccc(C)cc2)cc1", "note": "[1-F]", "values": [{"measurement": "inhibition at 3 µM", "setting": "[1]", "result": 100, "unit": "%"}, {"measurement": "inhibition at 3 µM", "setting": "[2]", "result": 83, "unit": "%"}, {"measurement": "IC50", "setting": "CO in intact RBL-1 cells", "result": 60, "unit": "nM"}, {"measurement": "IC50", "setting": "[3]", "result": 2400, "unit": "nM"}]}
{"smiles": "COc1ccc(-n2nc(CSC(=S)N(O)C(C)C)c(Cl)c2-c2ccc(C)cc2)cc1", "note": "[1-I]", "values": [{"measurement": "inhibition at 3 µM", "setting": "[4]", "result": 0, "unit": "%"}, {"measurement": "inhibition at 3 µM", "setting": "[1]", "result": 0, "unit": "%"}, {"measurement": "inhibition at 3 µM", "setting": "[2]", "result": 82, "unit": "%"}]}
{"smiles": "COc1ccc(-n2nc(CSC(=S)N(C)O)c(Br)c2-c2ccc(C)cc2)cc1", "note": "[1-J]", "values": [{"measurement": "inhibition at 3 µM", "setting": "[4]", "result": 36, "unit": "%"}, {"measurement": "inhibition at 3 µM", "setting": "[1]", "result": 52, "unit": "%"}, {"measurement": "inhibition at 3 µM", "setting": "[2]", "result": 83, "unit": "%"}]}
{"smiles": "COc1ccc(-n2nc(CSC(=S)N(O)C(C)C)c(Br)c2-c2ccc(C)cc2)cc1", "note": "[1-K]", "values": [{"measurement": "inhibition at 3 µM", "setting": "[4]", "result": 0, "unit": "%"}, {"measurement": "inhibition at 3 µM", "setting": "[1]", "result": 0, "unit": "%"}, {"measurement": "inhibition at 3 µM", "setting": "[2]", "result": 87, "unit": "%"}]}
